This is an account of results in ChEMBL document CHEMBL4619799, “Mechanistic Insight into Antiretroviral Potency of 2'-Deoxy-2'-β-fluoro-4'-azidocytidine (FNC) with a Long-Lasting Effect on HIV-1 Prevention” (J Med Chem, 2020).

Calls of active or inactive are those of the source. No cut-off for these calls is given here.

A short description of series [1]: Tmax in monkey plasma at 1 mg/kg, po administered as single dose by LC-MS/MS analysis. The series is classed as ADME, organism-based, Macaca mulatta. The following applies: rhesus monkey.
A short description of series [2]: Cmax in monkey plasma at 6 mg/kg, po administered as single dose by LC-MS/MS analysis. The series is classed as ADME, organism-based, Macaca mulatta. Set-up: dose 6 mg/kg, route oral. The following applies: rhesus monkey.
Series [3] can be described thus: Cytotoxicity against human Hut/CCR5 cells assessed as reduction in cell viability measured after 72 hrs by MTT assay. The format is cell-based.
Series [4] deals with Human immunodeficiency virus 1. In words: Synergistic antiviral activity against JRFL pseudotyped HIV1 infected in human Hut/CCR5 cells assessed as combination index in presence of dolutegravir by luciferase reporter gene based assay. The format is functional.
A short description of series [5]: Effect on CD25 surface expression in IL2-induced human PBMC-derived CD14-positive monocytes at 100 nM measured after 48 hrs by immunostaining based flow cytometry. The series is classed as ADME. The following applies: 0.1 µM.
Series [6] in a line: Effect on CD69 surface expression in IL2-induced human PBMC-derived CD14-positive monocytes at 100 nM measured after 48 hrs by immunostaining based flow cytometry. The format is ADME. The conditions noted are these: 0.1 µM.
The nature of series [7]: Cmax in monkey PBMC assessed as FNC-TP level at 1 mg/kg, po administered as single dose by LC-MS/MS analysis. The following applies: rhesus monkey, in vivo. The series is classed as ADME, organism-based, Macaca mulatta. Set-up: dose 1 mg/kg, route oral.
Series [8] in a line: Cmax in monkey plasma at 6 mg/kg, po administered as single dose measured after 24 hrs by LC-MS/MS analysis. The series is classed as ADME, organism-based, Macaca mulatta. Also on record: dose 6 mg/kg, route oral. The following applies: rhesus monkey.
Series [9] can be described thus: Effect on HLA-DR surface expression in IL2-induced human PBMC-derived CD14-positive monocytes at 100 nM measured after 48 hrs by immunostaining based flow cytometry. The series is classed as ADME. The conditions noted are these: 0.1 µM.
In series [10] the test system is Human immunodeficiency virus 1. In words: Antiviral activity against HIV1 infected patient assessed as […] in CD4-positive T cell count at 4 mg administered daily for 7 days measured 24 hrs post-last dose by immunostaining based flow cytometry analysis. The series is classed as functional, organism-based.
Series [11] is described as follows: Binding affinity to HIV1 Vif and CBFbeta-ELOB-ELOC complex (unknown origin) by CM5 chip based assay.
Series [12] can be described thus: Cytotoxicity against human Hut/CCR5 cells assessed as reduction in cell viability at 0.1 to 10 nM measured after 120 hrs by MTT assay. The format is cell-based. The conditions noted are these: 0.01 µM.

As to `[N-]=[N+]=N[C@]1(CO)O[C@@H](n2ccc(N)nc2=O)[C@@H](F)[C@@H]1O` [RO-0622], the Tmax in series [1] is 1 h. In addition, the values for the highest concentration (Cmax) in [2], in series [7] and in [8] were 2070 nM, 2.1 nM and 6.5 nM, respectively. Also, in [3], the CC50 at 72 h came to 340 nM. The CI50 in series [4] was 0.01704. Also, the CI75 in [4] is given as 0.01929. The CI90 in [4] came to 0.02209. For the same compound, the CI95 in series [4] came to 0.0244. Further, the Activity result in [5], in series [6], in series [9] and in [12] was “Non-Toxic” in each case. For the same compound, the result in series [10] was inactive. Further, in series [11], the equilibrium dissociation constant (Kd) turned out to be 87 nM.
